Measurements taken from PMC5034696 (Drug Metabolism and Disposition, 2016).

Assays:
human liver microsomes [1] = type: in vitro ADME; settings: HLM
human liver microsomes [2] = type: in vitro ADME; settings: HLM, p < 0.05; for S,S-OH-bupropion formation higher than control: 1 μM S-bupropion
CYP2C19 = settings: vs extensive metabolizers; ref Zhu et al., 2014; cited from earlier work
[3] = in vivo, humans; ref Turpeinen et al., 2005; cited from earlier work

Which results are given for `CCC1(c2ccccc2)NC(=O)N(Cc2ccccc2)C1=O` (single isomer, unassigned; (+)) [N-benzylnirvanol, (+)-N-3-benzylnirvanol]?
inhibition of 4′-OH-bupropion formation from R-bupropion (human liver microsomes [1]; 1 µM R-bupropion): 84%; inhibition of 4′-OH-bupropion formation from S-bupropion (human liver microsomes [1]; 1 µM S-bupropion): 82%; R,R-OH-bupropion formation higher than control (human liver microsomes [2]; 1 μM R-bupropion): 11%; S,S-OH-bupropion formation higher than control (human liver microsomes [2]): 20%

For `CC(NC(C)(C)C)C(=O)c1cccc(Cl)c1` (stereo not shown) [bupropion], which “estimated in vivo isomerization CL” value (Chiral inversion; scaled to blood volume (5 l)) is on record?
The value was 2.7 L/h.

And the “estimated in vivo isomerization CL” value (Chiral inversion; scaled to total body water (42 l))?
The value was 22.7 L/h.

And the “increase in bupropion AUC in CYP2C19 intermediate metabolizers” value (CYP2C19)?
Its value is 13%.

With `COC(=O)[C@H](c1ccccc1Cl)N1CCc2sccc2C1` [clopidogrel] as the compound, how does the “increase in bupropion AUC” value [3] read?
Its value is 36%.

Which “S,S-OH-bupropion formation higher than control” value (human liver microsomes [2]) does the source give for `CC(C)(O)c1ccccc1CC[C@@H](SCC1(CC(=O)O)CC1)c1cccc(/C=C/c2ccc3ccc(Cl)cc3n2)c1` [montelukast] here?
Its value is 15%.

For `Clc1ccccc1CN1CCc2sccc2C1` [ticlopidine], which “increase in bupropion AUC” value [3] is on record?
Its value is 61%.
